According to PubChem BioAssay AID2060624 (Molecular Pharmacology Branch, DTP, NCI, 2025):

Test system: 217524-143-R1-J4-PDC spheroids with HUVEC/MSC, viability
Experiment: Anticancer human tumor 217524-143-R1-J4-PDC patient-derived pancreatic carcinoma cell line growth inhibition [CLK]
Details: for IC50: curve of first compound; for viability, T/C: stronger effect = lower value; active means viability on the fitted dose curve at most 10% of control; inactive means the rest
How it was run: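 Patient-derived tumor cells grown as complex spheroids with HUVEC endothelial cells and mesenchymal stem cells, treated with drug combinations. Concentrations descend in half-log steps from near clinical Cmax, or from 10 microM if Cmax unknown.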

[1] = second compound 0.0316 µM, first compound 0.0316 µM
[2] = second compound 0.0316 µM, first compound 0.1 µM
[3] = second compound 0.0316 µM, first compound 0.316 µM
[4] = second compound 0.0316 µM, first compound 1 µM
[5] = second compound 0.0316 µM, first compound 3.16 µM
[6] = second compound 0.0316 µM, first compound 10 µM
[7] = second compound 0.1 µM, first compound 0.0316 µM
[8] = second compound 0.1 µM, first compound 0.1 µM
[9] = second compound 0.1 µM, first compound 0.316 µM
[10] = second compound 0.1 µM, first compound 1 µM
[11] = second compound 0.1 µM, first compound 3.16 µM
[12] = second compound 0.1 µM, first compound 10 µM
[13] = second compound 0.316 µM, first compound 0.0316 µM
[14] = second compound 0.316 µM, first compound 0.1 µM
[15] = second compound 0.316 µM, first compound 0.316 µM
[16] = second compound 0.316 µM, first compound 1 µM
[17] = second compound 0.316 µM, first compound 3.16 µM
[18] = second compound 0.316 µM, first compound 10 µM
[19] = second compound 1 µM, first compound 0.0316 µM
[20] = second compound 1 µM, first compound 0.1 µM
[21] = second compound 1 µM, first compound 0.316 µM
[22] = second compound 1 µM, first compound 1 µM
[23] = second compound 1 µM, first compound 3.16 µM
[24] = second compound 1 µM, first compound 10 µM
[25] = second compound 3.16 µM, first compound 0.0316 µM
[26] = second compound 3.16 µM, first compound 0.1 µM
[27] = second compound 3.16 µM, first compound 0.316 µM
[28] = second compound 3.16 µM, first compound 1 µM
[29] = second compound 3.16 µM, first compound 3.16 µM
[30] = second compound 3.16 µM, first compound 10 µM
[31] = second compound 10 µM, first compound 0.0316 µM
[32] = second compound 10 µM, first compound 0.1 µM
[33] = second compound 10 µM, first compound 0.316 µM
[34] = second compound 10 µM, first compound 1 µM
[35] = second compound 10 µM, first compound 3.16 µM
[36] = second compound 10 µM, first compound 10 µM
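Further: spheroids exposed to agents for seven days before reading.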
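Wherever viability, T/C is given: 100% = DMSO vehicle control viability.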

C=CC(=O)N1CCN(c2nc(=O)n(-c3c(C)ccnc3C(C)C)c3nc(-c4c(O)cccc4F)c(F)cc23)C(C)C1 (stereo unspecified) + CNC(=O)c1ccc(Nc2nc(OC3CCCC3)c3c(-c4ccc5nc(C)oc5c4)c[nH]c3n2)c(OC)c1
< 31.6 nM: IC50 (second compound 0.1 µM) | IC50 (second compound 0.316 µM) | IC50 (second compound 1 µM) | IC50 (second compound 3.16 µM) | IC50 (second compound 10 µM)
inactive: viability, T/C [1] 99.7% | viability, T/C [2] 96.5% | viability, T/C [3] 82.2% | viability, T/C [4] 102% | viability, T/C [5] 123% | viability, T/C [6] 118% | viability, T/C [7] 44.1% | viability, T/C [8] 47.4% | viability, T/C [9] 41.4% | viability, T/C [10] 49.9% | viability, T/C [11] 58.5% | viability, T/C [12] 55.8% | viability, T/C [13] 34.6% | viability, T/C [14] 31.3% | viability, T/C [15] 50.8% | viability, T/C [16] 41.4% | viability, T/C [17] 49% | viability, T/C [18] 43.4% | viability, T/C [19] 24.7% | viability, T/C [20] 27.6% | viability, T/C [21] 32.8% | viability, T/C [22] 39.2% | viability, T/C [23] 36.4% | viability, T/C [24] 30% | viability, T/C [25] 24.9% | viability, T/C [26] 29.8% | viability, T/C [27] 31% | viability, T/C [28] 30.2% | viability, T/C [29] 36.8% | viability, T/C [30] 27.9% | viability, T/C [31] 27.9% | viability, T/C [32] 27.9% | viability, T/C [33] 31.7% | viability, T/C [34] 31.9% | viability, T/C [35] 34.2% | viability, T/C [36] 29.1%
> 10000 nM: IC50 (second compound 0.0316 µM)

CC(CO)NC(=O)c1cc(-c2ccc(Cl)cc2)nn(-c2cnn(C)c2)c1=O (stereo unspecified) + CNC(=O)c1ccc(Nc2nc(OC3CCCC3)c3c(-c4ccc5nc(C)oc5c4)c[nH]c3n2)c(OC)c1
> 10000 nM: IC50 (second compound 0.0316 µM)
inactive: viability, T/C [1] 101% | viability, T/C [2] 81.4% | viability, T/C [3] 86.5% | viability, T/C [4] 105% | viability, T/C [5] 106% | viability, T/C [6] 84.2% | viability, T/C [7] 44.8% | viability, T/C [8] 42.2% | viability, T/C [9] 46.1% | viability, T/C [10] 51.3% | viability, T/C [11] 47.4% | viability, T/C [12] 43.5% | viability, T/C [13] 48.2% | viability, T/C [14] 39.8% | viability, T/C [15] 44.8% | viability, T/C [16] 40.1% | viability, T/C [17] 38.9% | viability, T/C [18] 38.7% | viability, T/C [19] 26.2% | viability, T/C [20] 30.1% | viability, T/C [21] 26.2% | viability, T/C [22] 32.7% | viability, T/C [23] 28.3% | viability, T/C [24] 25% | viability, T/C [25] 33.1% | viability, T/C [26] 26.2% | viability, T/C [27] 32.4% | viability, T/C [28] 31.8% | viability, T/C [29] 28.8% | viability, T/C [30] 20.9% | viability, T/C [31] 31.3% | viability, T/C [32] 25.7% | viability, T/C [33] 24.1% | viability, T/C [34] 24.4% | viability, T/C [35] 24.7% | viability, T/C [36] 20.6%
< 31.6 nM: IC50 (second compound 0.1 µM) | IC50 (second compound 0.316 µM) | IC50 (second compound 1 µM) | IC50 (second compound 3.16 µM) | IC50 (second compound 10 µM)

COc1c(OCCCN2CCOCC2)ccc2c3n(c(=NC(=O)c4cnc(N)nc4)nc12)CCN3 + CNC(=O)c1ccc(Nc2nc(OC3CCCC3)c3c(-c4ccc5nc(C)oc5c4)c[nH]c3n2)c(OC)c1
< 3.16 nM: IC50 (second compound 0.1 µM) | IC50 (second compound 0.316 µM) | IC50 (second compound 1 µM) | IC50 (second compound 3.16 µM) | IC50 (second compound 10 µM)
active: viability, T/C [2] 4.29% | viability, T/C [3] 2.9% | viability, T/C [4] 2.31% | viability, T/C [7] 9.86% | viability, T/C [8] 3.54% | viability, T/C [9] 3.16% | viability, T/C [10] 2.09% | viability, T/C [13] 7.78% | viability, T/C [14] 3.17% | viability, T/C [15] 2.58% | viability, T/C [16] 2.49% | viability, T/C [19] 4.57% | viability, T/C [20] 3.24% | viability, T/C [21] 1.78% | viability, T/C [22] 1.77% | viability, T/C [25] 5.14% | viability, T/C [26] 2.24% | viability, T/C [27] 1.69% | viability, T/C [28] 1.26% | viability, T/C (second compound 10 µM, first compound 0.01 µM) 9.36% | viability, T/C [31] 5% | viability, T/C [32] 2.58% | viability, T/C [33] 1.86% | viability, T/C [34] 1.37%
inactive: viability, T/C (second compound 0.0316 µM, first compound 0.00316 µM) 74.9% | viability, T/C (second compound 0.0316 µM, first compound 0.01 µM) 38.7% | viability, T/C [1] 10.4% | viability, T/C (second compound 0.1 µM, first compound 0.00316 µM) 36.7% | viability, T/C (second compound 0.1 µM, first compound 0.01 µM) 21.8% | viability, T/C (second compound 0.316 µM, first compound 0.00316 µM) 22.1% | viability, T/C (second compound 0.316 µM, first compound 0.01 µM) 14.2% | viability, T/C (second compound 1 µM, first compound 0.00316 µM) 19.9% | viability, T/C (second compound 1 µM, first compound 0.01 µM) 10.9% | viability, T/C (second compound 3.16 µM, first compound 0.00316 µM) 21% | viability, T/C (second compound 3.16 µM, first compound 0.01 µM) 11.8% | viability, T/C (second compound 10 µM, first compound 0.00316 µM) 16.7%
6.97 nM: IC50 (second compound 0.0316 µM)
